These results are taken from EPA's ToxValDB 9.5 (doi:10.2903/j.efsa.2016.4406).

The term LC50 denotes the concentration lethal to half of the exposed cells or organisms. A lower LC50 goes with a more lethal substance. Usually NOAEL stands for the highest dose or exposure tested at which no adverse effect was seen.

Data set [1] has as its system Rattus norvegicus. The following applies: for LD50: acute, mortality.
Data set [2] deals with Folsomia candida. The following applies: chronic/long-term; mortality.
Data set [3] deals with Colinus virginianus. Particulars: for LD50: acute, oral, mortality.
For data set [4], the system named is Tagia sp. The following applies: chronic/long-term; growth.
Data set [5] relates to Oncorhynchus mykiss. The following applies: acute, mortality.
In data set [6] the test system is Daphnia magna. The following applies: chronic/long-term; duration: 21 days; reproduction.
Data set [7] has as its system Apis mellifera. Particulars: acute, mortality.
Data set [8] has as its system Neomysis kadiakensis. The following applies: chronic/long-term; duration: 28 days; reproduction.
For data set [9], the system named is Pimephales promelas. Particulars: chronic/long-term; duration: 266 days; reproduction.
Data set [10] has as its system Chironomus tentans. Particulars: chronic/long-term; duration: 24 days.

Values after ≈ are worked out from the molar mass of the structure shown. Some results are limits rather than exact numbers.

With `CSC1=N[C@@](C)(c2ccccc2)C(=O)N1`, the LD50 amounted to 176 mg/kg in data set [1] and 723 mg/kg in data set [3] (diet). Also, the results for the NOEC in data set [2], in data set [4] and in data set [6] were 250 mg/kg, 100 mg/kg and 16 mg/L, respectively. Also, in [5], the LC50 was > 98 mg/L.
In the case of `CC1(c2ccccc2)NC(=O)NC1=O` (configuration not stated) [5-Methyl-5-phenylhydantoin], the LD50 in data set [1] (oral) was 1520 mg/kg; in data set [3] (diet) it was > 2500 mg/kg. For the same compound, the NOAEL in data set [1] (subchronic, duration: 90 days, oral) was 6.4 mg/kg-day.
In the case of `CSC1=N[C@@](C)(c2ccccc2)C(=O)N1Nc1ccccc1` [(S)-1-Anilino-4-methyl-2-methylthio-4-phenylimidazolin-5-one], the LD50 in data set [7] (dermal) is 25.7 µg/piece; in data set [7] (oral, unspecified) it was > 93.3 µg/piece; in data set [1], > 2030 mg/kg; in data set [3] (diet), > 1070 mg/kg; in data set [3], > 2000 mg/kg. This compound showed an NOAEL in data set [1] (chronic, body weight) of 3.9 mg/kg-day. Also, the NOEC turned out to be 0.0095 mg/L in data set [8]; 0.07 mg/L in [9]; 2.26 mg/kg in [2]; 0.05 mg/L in data set [10]; 0.63 mg/kg in data set [4]. Besides, the NOEL in data set [3] (chronic, reproduction) is 133 mg/kg-day. The LC50 in [5] (duration: 96 hours) worked out at 0.74 mg/L (≈ 2.38 µM).
